Where a name gives a salt, the structure may show the parent alone.
Columns and labels:
[1] = Neurotoxicity, SH-SY5Y cell viability; assay type: cell-based; details: human, neuroblastoma SH-SY5Y cells; 50 μM, 72 h
Method: (§1) A series of in vitro ADME-Tox tests were performed for SSR504734 in order to estimate its drugability. The ADME-Tox parameters including permeability, plasma protein binding, metabolic stability, neurotoxicity, and hepatotoxicity were carried out as described previously.[31],[32] The ability of SSR504734 to penetrate through the biological membrane by passive diffusion was estimated by the Gentest Precoated PAMPA Plate System (Corning, Tewksbury, MA) and expressed as the permeability coefficient (Pe). The protein binding analysis was performed by using the commercial TRANSIL^XL PPB test, which mimics in vitro physiological plasma conditions where human serum albumin (HAS) and alpha-1-acid glycoprotein AGP are present in a 24:1 ratio. The human metabolism of SSR504734 was studied using human liver microsomes (HLMs) provided by Sigma-Aldrich. The hepatotoxicity and neurotoxicity were estimated in cellular models with the use of hepatoma HepG2 and neuroblastoma SH-SY5Y cell lines to perform the preliminary safety tests. The cells were incubated with SSR504734 at the concentration range of 0.1–100 μM. 1 μM cytostatic drug doxorubicin (DX) was used as the reference.
(§2) Figure 8 Effect of cytostatic drug doxorubicin (DX) and SSR504734 on (A) hepatoma HepG2 and (B) neuroblastoma SH-SY5Y cell lines viability after 72 h of incubation at 37 °C, 5% CO2. Data are expressed as means ± SD. Statistical analysis: ****p < 0.0001 vs negative control −1% DMSO in growth media (one-way ANOVA, followed by Dunnett’s post hoc test).
(§3) Figure S8. The effect of cytostatic drug doxorubicin and SSR504734 on (A) hepatoma
(§4) HepG2 and (B) neuroblastoma SH-SY5Y cell line viability after 72 h of incubation at 37 °C,
(§5) 5% CO2. The IC50 values were calculated by GraphPad Prism 8.0.
(§6) (1 picture or pasted object on this page, not shown here)

[2] = system: neuroblastoma SH-SY5Y cells; test: Neurotoxicity, SH-SY5Y cell viability; assay type: cell-based
Method: as §1, §2, §3, §4, §5, §6

O=C(NC(c1ccccc1)C1CCCCN1)c1cccc(C(F)(F)F)c1Cl [SSR504734, 2-chloro-N-[(S)-phenyl[(2S)-piperidin-2-yl]methyl]-3-trifluoromethyl benzamide monohydrochloride]
viability at 72 h, 50 µM [1]: ~30% | completely safe dose in the SH-SY5Y model ([2]; 72 h): 25 µM | IC50 ([2]; Homo sapiens, SH-SY5Y, 72 h of incubation): 38.1 µM
